Reference: the NIST ThermoML archive (doi:10.1016/j.jct.2012.12.022)
Values joined by “and” are separate entries in the source; they are usually repeats but may differ in a detail not shown here. Equal entries are not always repeated. ± gives the expanded uncertainty stated by the source.

Assay: mn = molality of the nth substance listed, in mol/kg
Settings: 101 kPa, Liquid; for speed of sound: Sing-around technique in a fixed-path interferometer; for mass density: Vibrating tube method

CC(=O)NCC(=O)O [N-acetylglycine] + O
Settings | mass density, 288.15 K | mass density, 293.15 K | mass density, 298.15 K | mass density, 303.15 K | speed of sound, 288.15 K | speed of sound, 293.15 K | speed of sound, 298.15 K [m/s] | speed of sound, 303.15 K
m1 = 0.085 | 1001.93 ± 0.23 kg/m3 | 1000.99 ± 0.23 kg/m3 | 999.799 ± 0.23 kg/m3 | 998.366 ± 0.23 kg/m3 | 1470.3 ± 2.2 m/s | 1485.9 ± 2.2 m/s | 1499.7 ± 2.2 | 1511.7 ± 2.2 m/s
m1 = 0.18 | 1005.02 ± 0.23 kg/m3 and 1004.89 ± 0.23 kg/m3 | 1004.02 ± 0.23 kg/m3 and 1003.9 ± 0.23 kg/m3 | 1002.78 ± 0.23 kg/m3 and 1002.66 ± 0.23 kg/m3 | 1001.3 ± 0.23 kg/m3 and 1001.18 ± 0.23 kg/m3 | 1475.4 ± 2.2 m/s and 1470.6 ± 5 m/s | 1490.5 ± 2.2 m/s and 1490.7 ± 2.2 m/s | 1504 ± 2.2 | 1515.6 ± 2.2 m/s and 1515.5 ± 2.2 m/s

O=C([O-])CC(O)(CC(=O)[O-])C(=O)[O-].[K+].[K+].[K+] [potassium citrate] + O
Settings | mass density, 288.15 K [kg/m3] | mass density, 293.15 K [kg/m3] | mass density, 298.15 K [kg/m3] | mass density, 303.15 K [kg/m3] | speed of sound, 288.15 K [m/s] | speed of sound, 293.15 K [m/s] | speed of sound, 298.15 K [m/s] | speed of sound, 303.15 K [m/s]
m1 = 0.00361 | 999.9 ± 0.2 | 998.989 ± 0.2 | 997.839 ± 0.2 | 996.386 ± 0.2 | 1467.4 ± 2.1 | 1483.1 ± 2.1 | 1497.3 ± 2.1 | 1509.7 ± 2.1
m1 = 0.05427 | 1010.36 ± 0.2 | 1009.25 ± 0.2 | 1007.98 ± 0.2 | 1006.52 ± 0.2 | 1478.4 ± 2.1 | 1493.8 ± 2.1 | 1507.6 ± 2.1 | 1519.7 ± 2.1
m1 = 0.09681 | 1018.59 ± 0.2 | 1017.45 ± 0.2 | 1016.12 ± 0.2 | 1014.61 ± 0.2 | 1487.2 ± 2.1 | 1502.1 ± 2.1 | 1515.8 ± 2.1 | 1527.7 ± 2.1
m1 = 0.2001 | 1038.27 ± 0.21 | 1037.36 ± 0.21 | 1035.59 ± 0.21 | 1034.01 ± 0.21 | 1507 ± 2.1 | 1521.7 ± 2.1 | 1534.6 ± 2.1 | 1545.9 ± 2.1
m1 = 0.2914 | 1055.11 ± 0.21 | 1053.58 ± 0.21 | 1051.92 ± 0.21 | 1050.18 ± 0.21 | 1524.1 ± 2.1 | 1537.8 ± 2.1 | 1550.6 ± 2.1 | 1561.2 ± 2.1
m1 = 0.3859 | 1071.84 ± 0.21 | 1070.62 ± 0.21 | 1069.02 ± 0.21 | 1066.43 ± 0.21 | 1541.9 ± 2.1 | 1555.4 ± 2.1 | 1567.7 ± 2.1 | 1577.7 ± 2.1
m1 = 0.4948 | 1090.12 ± 0.21 | 1088.43 ± 0.21 | 1086.46 ± 0.21 | 1084.57 ± 0.21 | 1561.8 ± 2.1 | 1572.8 ± 2.1 | 1584.8 ± 2.1 | 1595.2 ± 2.1
m1 = 0.5799 | 1104.11 ± 0.21 | 1102.38 ± 0.21 | 1100.2 ± 0.21 | 1098.17 ± 0.21 | 1576.6 ± 2.1 | 1588 ± 2.1 | 1598.8 ± 2.1 | 1609.1 ± 2.1
m1 = 0.6983 | 1122.79 ± 0.22 | 1120.89 ± 0.22 | 1118.45 ± 0.22 | 1116.27 ± 0.22 | 1597.6 ± 2.1 | 1608.2 ± 2.1 | 1618.3 ± 2.1 | 1627.5 ± 2.1
m1 = 0.7576 | 1131.78 ± 0.22 | 1129.85 ± 0.22 | 1127.36 ± 0.22 | 1125.04 ± 0.22 | 1607.6 ± 2.1 | 1618.9 ± 2.1 | 1627.7 ± 2.1 | 1637.2 ± 2.1
m1 = 0.8939 | 1151.83 ± 0.23 | 1149.58 ± 0.23 | 1146.96 ± 0.23 | 1144.2 ± 0.23 | 1630.8 ± 2.2 | 1641.3 ± 2.1 | 1649.4 ± 2.1 | 1657.5 ± 2.1

O=C([O-])CC(O)(CC(=O)[O-])C(=O)[O-].[Na+].[Na+].[Na+] [trisodium citrate] + O
Settings | mass density, 288.15 K [kg/m3] | mass density, 293.15 K [kg/m3] | mass density, 298.15 K [kg/m3] | mass density, 303.15 K [kg/m3] | speed of sound, 288.15 K [m/s] | speed of sound, 293.15 K [m/s] | speed of sound, 298.15 K [m/s] | speed of sound, 303.15 K [m/s]
m1 = 0.00247 | 999.597 ± 0.2 | 998.701 ± 0.2 | 997.537 ± 0.2 | 996.131 ± 0.2 | 1467.4 ± 2.1 | 1483 ± 2.1 | 1497.2 ± 2.1 | 1509.6 ± 2.1
m1 = 0.04871 | 1008.4 ± 0.2 | 1007.39 ± 0.2 | 1006.09 ± 0.2 | 1004.6 ± 0.2 | 1479.1 ± 2.1 | 1493.7 ± 2.1 | 1507.2 ± 2.1 | 1519.6 ± 2.1
m1 = 0.09738 | 1017.15 ± 0.2 | 1016.08 ± 0.2 | 1014.65 ± 0.2 | 1013.09 ± 0.2 | 1488.8 ± 2.1 | 1503.5 ± 2.1 | 1516.8 ± 2.1 | 1529 ± 2.1
m1 = 0.201 | 1034.85 ± 0.2 | 1033.45 ± 0.2 | 1031.8 ± 0.2 | 1030.15 ± 0.2 | 1509.2 ± 2.1 | 1523.4 ± 2.1 | 1536.7 ± 2.1 | 1547.8 ± 2.1
m1 = 0.2898 | 1049.56 ± 0.21 | 1047.86 ± 0.21 | 1046.01 ± 0.21 | 1044.34 ± 0.21 | 1526.1 ± 2.1 | 1540 ± 2.1 | 1552.4 ± 2.1 | 1562.6 ± 2.1
m1 = 0.3899 | 1065.78 ± 0.21 | 1063.45 ± 0.21 | 1061.6 ± 0.21 | 1059.7 ± 0.21 | 1545.2 ± 2.1 | 1558.9 ± 2.1 | 1570.2 ± 2.1 | 1579 ± 2.1
m1 = 0.4966 | 1082.16 ± 0.21 | 1079.75 ± 0.21 | 1077.6 ± 0.21 | 1075.59 ± 0.21 | 1565.2 ± 2.1 | 1578 ± 2.1 | 1587.1 ± 2.1 | 1596.3 ± 2.1
m1 = 0.6007 | 1097.37 ± 0.21 | 1094.95 ± 0.21 | 1092.45 ± 0.21 | 1090.27 ± 0.21 | 1583.7 ± 2.1 | 1595 ± 2.1 | 1603.5 ± 2.1 | 1612.2 ± 2.1
m1 = 0.7036 | 1111.65 ± 0.22 | 1109.41 ± 0.22 | 1106.71 ± 0.22 | 1104.4 ± 0.22 | 1601 ± 2.1 | 1611.8 ± 2.1 | 1617.6 ± 2.1 | 1626.5 ± 2.1
m1 = 0.7698 | 1120.84 ± 0.22 | 1118.51 ± 0.22 | 1115.58 ± 0.22 | 1113.15 ± 0.22 | 1612.3 ± 2.1 | 1621.3 ± 2.1 | 1628.1 ± 2.1 | 1635.6 ± 2.1
m1 = 0.9013 | 1138.29 ± 0.22 | 1135.53 ± 0.22 | 1132.31 ± 0.22 | 1129.69 ± 0.22 | 1636.1 ± 2.1 | 1643.5 ± 2.1 | 1646 ± 2.1 | 1652.1 ± 2.1
